Measurements reported in US20230365602A1, “COMPOUND FOR USE IN THE TREATMENT OF PROTOZOAL DISEASES AND PROCESS FOR PRODUCTION OF SAID COMPOUND” (QUADREL S.R.L., priority 2020, published 2023).
“Also recorded” adds a separate entry of the source. Where two headings read alike, the source gives them in different places.

Key:
[1] = Toxicity MTT assay in PMA-differentiated THP-1 cells; format: cell-based, human; conditions: human, PMA-differentiated THP-1 cells (macrophages)
Description: (§1) The in vitro antiparasitic activity against L. infantum (MHOM/MA/67/ITMAP-263) and the toxicity against THP-1 macrophages is presented in Table 1.

[2] = system: PMA-differentiated THP-1 cells; experiment: as above; format: cell-based, human
Description: as §1

[3] = system: L. donovani 1SR intracellular amastigotes; experiment: Anti-leishmanial activity, L. donovani intracellular amastigotes; format: cell-based; conditions: Leishmania donovani; read-out: L. donovani 1SR intracellular amastigotes IC50 ± SEM
Description: (§2) The in vitro antiparasitic activity of compound 5-cyclopentadecylpentyl (2-(trimethylammonio)ethyl) phosphate (19) against L. infantum (2 species), L. amazonensis, L. donovani and L. major is presented in Table 3, as well as the toxicity against the human monocytic cell Line THP1 and PMA-differentiated THP-1 cells.

[4] = system: L. major SASKH intracellular amastigotes; experiment: Anti-leishmanial activity, L. major intracellular amastigotes; format: cell-based; conditions: Leishmania major; read-out: L. major SASKH intracellular amastigotes IC50 ± SEM
Description: as §2

CYP2C9 = CYP2C9 (Homo sapiens, UniProt P11712); experiment: Early toxicity: CYP2C9 inhibition; format: in vitro ADME; conditions: human, mean ± SD, Table 4a
CYP2C9, sequence (P11712 whole entry): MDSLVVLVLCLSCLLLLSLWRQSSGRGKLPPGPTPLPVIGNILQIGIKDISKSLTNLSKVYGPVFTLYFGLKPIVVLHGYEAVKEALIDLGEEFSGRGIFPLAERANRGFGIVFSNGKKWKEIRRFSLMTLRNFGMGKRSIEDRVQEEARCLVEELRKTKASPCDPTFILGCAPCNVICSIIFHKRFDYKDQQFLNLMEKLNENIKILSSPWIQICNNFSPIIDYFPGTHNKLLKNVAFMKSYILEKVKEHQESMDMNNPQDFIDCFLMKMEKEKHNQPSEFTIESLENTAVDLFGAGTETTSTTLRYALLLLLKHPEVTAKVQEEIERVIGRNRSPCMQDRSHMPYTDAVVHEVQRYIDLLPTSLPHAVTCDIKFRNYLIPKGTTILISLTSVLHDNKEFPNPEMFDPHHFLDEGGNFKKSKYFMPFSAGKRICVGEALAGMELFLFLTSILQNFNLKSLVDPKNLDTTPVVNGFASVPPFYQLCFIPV

CYP2C19 = CYP2C19 (Homo sapiens, UniProt P33261); experiment: Early toxicity: CYP2C19 inhibition; format: in vitro ADME; conditions: human, mean ± SD, Table 4a
CYP2C19, sequence (P33261 whole entry): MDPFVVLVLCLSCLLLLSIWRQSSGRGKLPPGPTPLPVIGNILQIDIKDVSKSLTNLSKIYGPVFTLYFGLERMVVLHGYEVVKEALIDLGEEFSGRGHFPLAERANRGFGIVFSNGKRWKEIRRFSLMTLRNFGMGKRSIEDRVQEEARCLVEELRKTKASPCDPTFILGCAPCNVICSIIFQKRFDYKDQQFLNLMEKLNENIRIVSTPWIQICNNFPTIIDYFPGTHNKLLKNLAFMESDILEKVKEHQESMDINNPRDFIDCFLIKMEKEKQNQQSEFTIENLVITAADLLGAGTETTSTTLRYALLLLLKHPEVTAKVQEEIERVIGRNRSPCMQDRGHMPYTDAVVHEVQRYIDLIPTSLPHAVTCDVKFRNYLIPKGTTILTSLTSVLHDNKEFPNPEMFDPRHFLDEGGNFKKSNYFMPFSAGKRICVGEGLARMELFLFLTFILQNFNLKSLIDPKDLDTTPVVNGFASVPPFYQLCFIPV

CYP2D6 = CYP2D6 (Homo sapiens, UniProt P10635); experiment: Early toxicity: CYP2D6 inhibition; format: in vitro ADME; conditions: human, mean ± SD, Table 4a
CYP2D6, sequence (P10635 whole entry): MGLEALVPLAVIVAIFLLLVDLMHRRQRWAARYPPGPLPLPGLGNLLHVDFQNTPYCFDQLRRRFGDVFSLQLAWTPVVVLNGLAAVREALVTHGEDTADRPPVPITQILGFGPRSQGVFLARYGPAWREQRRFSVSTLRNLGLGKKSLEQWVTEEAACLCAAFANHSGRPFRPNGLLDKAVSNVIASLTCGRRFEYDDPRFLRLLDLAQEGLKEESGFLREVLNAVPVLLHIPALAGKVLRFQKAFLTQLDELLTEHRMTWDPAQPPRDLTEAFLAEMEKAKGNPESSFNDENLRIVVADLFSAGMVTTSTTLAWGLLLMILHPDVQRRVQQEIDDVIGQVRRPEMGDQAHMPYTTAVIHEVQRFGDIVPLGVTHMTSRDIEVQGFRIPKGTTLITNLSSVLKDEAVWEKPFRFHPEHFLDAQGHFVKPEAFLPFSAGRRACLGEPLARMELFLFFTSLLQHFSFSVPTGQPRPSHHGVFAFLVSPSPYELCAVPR

CYP3A4 = CYP3A4 (Homo sapiens, UniProt P08684); experiment: Early toxicity: CYP3A4 inhibition; format: in vitro ADME; conditions: human, 10 μM
CYP3A4, sequence (P08684 whole entry): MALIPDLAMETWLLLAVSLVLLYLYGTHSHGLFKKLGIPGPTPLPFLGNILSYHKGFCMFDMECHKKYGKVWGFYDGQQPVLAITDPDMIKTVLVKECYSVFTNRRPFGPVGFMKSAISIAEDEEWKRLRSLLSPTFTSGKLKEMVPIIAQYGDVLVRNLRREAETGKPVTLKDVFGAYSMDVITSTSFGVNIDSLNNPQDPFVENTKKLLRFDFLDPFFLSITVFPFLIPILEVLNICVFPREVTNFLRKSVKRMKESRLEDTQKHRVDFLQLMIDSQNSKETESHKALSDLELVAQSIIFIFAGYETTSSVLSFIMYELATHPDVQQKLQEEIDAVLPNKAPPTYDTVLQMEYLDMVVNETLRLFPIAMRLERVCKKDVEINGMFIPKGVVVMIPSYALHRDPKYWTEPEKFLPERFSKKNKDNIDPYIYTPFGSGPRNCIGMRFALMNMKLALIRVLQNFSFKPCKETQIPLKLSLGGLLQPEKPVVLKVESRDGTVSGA

W1-38 = experiment: Early toxicity: W1-38 cell growth; format: cell-based; conditions: 10 μM
mitochondria = experiment: Early toxicity: mitochondrial toxicity; format: cell-based; conditions: 10 μM
HDAC9 = HDAC9 (Homo sapiens, UniProt Q9UKV0); experiment: HDAC9 activity inhibition; format: biochemical; conditions: 100 μM
HDAC9, sequence (Q9UKV0 whole entry, species assumed): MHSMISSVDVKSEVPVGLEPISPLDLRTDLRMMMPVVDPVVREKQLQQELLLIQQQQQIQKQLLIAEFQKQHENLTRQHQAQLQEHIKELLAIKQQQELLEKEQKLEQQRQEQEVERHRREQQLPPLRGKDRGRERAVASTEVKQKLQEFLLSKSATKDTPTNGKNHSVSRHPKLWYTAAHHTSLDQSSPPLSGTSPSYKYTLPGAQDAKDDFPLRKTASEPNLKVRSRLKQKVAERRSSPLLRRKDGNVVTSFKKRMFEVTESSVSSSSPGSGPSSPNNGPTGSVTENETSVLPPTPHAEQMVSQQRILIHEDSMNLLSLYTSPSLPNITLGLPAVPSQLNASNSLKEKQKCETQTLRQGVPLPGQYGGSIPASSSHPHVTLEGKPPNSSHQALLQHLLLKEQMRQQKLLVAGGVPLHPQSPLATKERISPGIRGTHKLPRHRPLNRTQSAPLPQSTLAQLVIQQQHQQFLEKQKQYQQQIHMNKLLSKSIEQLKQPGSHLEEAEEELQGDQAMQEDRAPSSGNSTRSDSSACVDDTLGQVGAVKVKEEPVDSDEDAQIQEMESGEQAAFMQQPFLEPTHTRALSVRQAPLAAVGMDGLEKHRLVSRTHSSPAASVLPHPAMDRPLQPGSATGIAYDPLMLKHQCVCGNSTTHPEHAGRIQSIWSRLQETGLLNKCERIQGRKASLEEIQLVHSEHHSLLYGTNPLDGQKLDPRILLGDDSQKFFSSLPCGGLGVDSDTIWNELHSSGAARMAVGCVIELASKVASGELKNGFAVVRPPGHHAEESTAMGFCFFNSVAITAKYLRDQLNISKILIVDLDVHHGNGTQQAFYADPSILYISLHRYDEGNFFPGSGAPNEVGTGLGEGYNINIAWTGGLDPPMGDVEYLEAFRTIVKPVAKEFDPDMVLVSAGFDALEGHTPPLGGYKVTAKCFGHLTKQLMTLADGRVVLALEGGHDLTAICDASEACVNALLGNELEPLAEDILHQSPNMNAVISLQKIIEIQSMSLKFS

HDAC6 = HDAC6 (Homo sapiens, UniProt Q9UBN7); experiment: HDAC6 activity inhibition; format: biochemical; conditions: 100 μM
HDAC6, sequence (Q9UBN7 whole entry, species assumed): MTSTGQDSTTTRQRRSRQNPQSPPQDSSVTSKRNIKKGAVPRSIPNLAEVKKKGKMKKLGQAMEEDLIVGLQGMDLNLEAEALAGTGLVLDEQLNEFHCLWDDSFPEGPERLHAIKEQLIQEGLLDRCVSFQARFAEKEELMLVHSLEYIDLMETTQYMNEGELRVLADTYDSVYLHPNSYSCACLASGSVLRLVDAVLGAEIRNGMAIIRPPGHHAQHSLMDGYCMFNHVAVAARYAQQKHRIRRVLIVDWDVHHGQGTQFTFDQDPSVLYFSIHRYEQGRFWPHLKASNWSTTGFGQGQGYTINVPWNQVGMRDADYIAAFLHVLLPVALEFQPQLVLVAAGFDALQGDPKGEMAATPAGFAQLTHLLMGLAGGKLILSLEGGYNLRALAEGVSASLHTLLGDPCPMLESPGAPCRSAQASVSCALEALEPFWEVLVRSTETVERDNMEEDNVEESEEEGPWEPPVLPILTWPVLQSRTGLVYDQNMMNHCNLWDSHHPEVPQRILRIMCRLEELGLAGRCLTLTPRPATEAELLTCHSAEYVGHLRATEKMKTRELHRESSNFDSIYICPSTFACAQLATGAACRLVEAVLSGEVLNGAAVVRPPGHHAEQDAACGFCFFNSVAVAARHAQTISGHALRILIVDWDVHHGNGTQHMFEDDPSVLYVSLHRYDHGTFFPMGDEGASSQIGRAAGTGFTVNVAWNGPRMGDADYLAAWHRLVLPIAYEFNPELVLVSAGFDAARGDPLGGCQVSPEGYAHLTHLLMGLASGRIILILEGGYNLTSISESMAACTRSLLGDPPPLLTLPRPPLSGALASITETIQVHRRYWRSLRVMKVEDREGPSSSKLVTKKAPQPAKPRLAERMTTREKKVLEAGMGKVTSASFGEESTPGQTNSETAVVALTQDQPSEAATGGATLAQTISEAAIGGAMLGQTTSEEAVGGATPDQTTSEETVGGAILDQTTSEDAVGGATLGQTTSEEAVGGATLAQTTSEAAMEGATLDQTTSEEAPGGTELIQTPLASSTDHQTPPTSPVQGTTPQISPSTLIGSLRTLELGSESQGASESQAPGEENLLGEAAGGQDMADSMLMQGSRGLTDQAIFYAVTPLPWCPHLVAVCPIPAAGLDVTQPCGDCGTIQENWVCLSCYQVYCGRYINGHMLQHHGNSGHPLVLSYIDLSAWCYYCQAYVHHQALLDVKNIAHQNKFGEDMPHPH

HDAC8 = HDAC8 (Homo sapiens, UniProt Q9BY41); experiment: HDAC8 activity inhibition; format: biochemical; conditions: 100 μM
HDAC8, sequence (Q9BY41 whole entry, species assumed): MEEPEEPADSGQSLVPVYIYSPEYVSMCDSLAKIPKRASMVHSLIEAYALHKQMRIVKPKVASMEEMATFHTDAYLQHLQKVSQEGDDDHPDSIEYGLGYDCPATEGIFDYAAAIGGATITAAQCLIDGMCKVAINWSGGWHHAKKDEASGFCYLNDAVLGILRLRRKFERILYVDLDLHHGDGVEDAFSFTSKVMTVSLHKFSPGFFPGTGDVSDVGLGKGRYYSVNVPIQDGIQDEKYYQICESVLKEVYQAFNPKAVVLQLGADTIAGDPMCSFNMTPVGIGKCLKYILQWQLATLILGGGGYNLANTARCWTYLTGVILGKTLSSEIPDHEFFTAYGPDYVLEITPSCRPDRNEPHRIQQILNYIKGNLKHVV

[5] = Apparent solubility by nephelometry; format: physicochemical; conditions: kinetic from dmso stock
[6] = Snapshot pharmacokinetics in plasma after oral gavage; format: in vivo, mice; conditions: for AUC(0-inf) / Cmax / half-life / Tmax: mouse, plasma; for Tmax: read-out: tmax
[7] = Maximum tolerated dose and dose range finding, 7 days oral gavage; conditions: for average weight loss at the end of the experiment: 7 days
Description: The primary objective of the dose range finding study is to establish the maximum tolerated dose (MTD) as determined by parameters such as clinical signs and reductions in body weight and food consumption, and to provide the data for appropriate dose selection in subsequent regulatory toxicology studies.

[8] = system: T. brucei brucei Lister 427 expressing red-shifted luciferase; experiment: Efficacy in HAT mice model (acute T. b. brucei infection), live imaging; format: in vivo, BALB/c mice
Description: (B) Overall evolution of parasite burden assessed by live imaging using IVIS Lumina LT (Perkin Elmer) during and after treatment. T. b. brucei Lister 427 expressing red-shifted luciferase was used in these experiments. DX is the day post treatment. (C) Quantification of bioluminescent signal plotted as average radiance (p/s/cm^2/sr) during and after treatment.
In addition, 5-cyclopentadecylpentyl (2-(trimethylammonio) ethyl) phosphate (19) was effective per os in vivo against T. brucei acute model of infection and also against the long lasting chronic infection model. […] The daily treatment with 50 mg/kg for 13 days lead to a significant decrease of infection and increase in animal survival. […] Altogether 5-cyclopentadecylpentyl (2-(trimethylammonio) ethyl) phosphate (19) is effective in the BALB/c infection model for T. brucei being a possible therapeutical option both for HAT stage I and II.
T. brucei brucei Lister 427 expressing red-shifted luciferase was used in these experiments as described for L. infantum in vivo infection in (Graça N A et al., Antimicrob Agents Chemother. 2016 Mar. 25; 60(4):2532-6). The overall evolution of parasite burden assessed by live imaging using IVIS Lumina LT (Perkin Elmer) during and after treatment. […] To confirm this possibility, the treated mice immune system was suppressed with cyclophosphamide. […] The advantage over pentamidine is the oral administration of compound 19 versus ip administration of pentamidine.

[9] = Gel formation in saline solutions of NaCl; format: physicochemical; conditions: same conditions
Method: This effect is more pronounced at concentrations between 7 and 40 mg/mL at a temperature range between 20° C. and 40° C., preferably at ambient temperature. The homogeneity of the product facilitates homogeneity of dosing, i.e, variability among doses is lower, easy administration of the compound and higher patient acceptability.

Question: What does the source list for `C[N+](C)(C)CCOP(=O)([O-])OCCCCCC1CCCCCCCCCCCCCC1` [Compound 19, 5-cyclopentadecylpentyl (2-(trimethylammonio)ethyl) phosphate]?
Answer: CC50 ([1]; THP-1 macrophages, Table 1, read-out: Toxicity CC50 ± SD or NOAEL): > 100 µM; IC50 ([1]; Table 4b, read-out: Cytotoxicity THP-1 (IC50)): > 100 µM; CC50 ([2]; MTT assay in PMA-differentiated THP-1 cells, Table 3, read-out: Toxicity CC50 ± SD): > 100 µM; CC50 ([2]; Table 2, read-out: Toxicity CC50 ± SD or NOAEL): > 100 µM; Toxicity MTT assay in PMA-differentiated THP-1 cells ([2]; Table 5): >100 µM; IC50 [3]: 24 ± 3.8 µM; IC50 [4]: 15.5 ± 1.5 µM; inhibition at 10 µM (CYP2C9): -17.5 ± 2.31%; inhibition at 10 µM (CYP2C19): -18.2 ± 7.01%; inhibition at 10 µM (CYP2D6): -50.7 ± 3.45%; inhibition at 10 µM (CYP3A4; Table 5, read-out: Avg % inhibition CYP3A4): -17.6 ± 8.89%; inhibition at 10 µM (CYP3A4; mean ± SD, Table 4a, read-out: % inhibition CYP3A4): 17.6 ± 8.89%; % cell growth W1-38 (W1-38): 95.66 ± 19.68%; Avg % Cell growth W1-38 (W1-38; Table 5): 95.66 ± 19.68 (10 μM) %; % mitochondrial toxicity (mitochondria; 100% mitotoxic, 0% not mitotoxic): −3.22 ± 5.44%; Ang % Toxicity Mitochondria (mitochondria; Table 5): −3.22 ± 5.44 (10 μM) %; inhibition of the activity of HDAC9 (HDAC9): does not inhibit; inhibition of the activity of HDAC6 (HDAC6): does not inhibit; effect on HDACr (HDAC8): not considered significant; solubility ([5]; FaSSIF, pH 6.5, fassif, read-out: Solubility in FaSSIF (pH = 6.5)): > 100 µM; solubility ([5]; FeSSIF, pH 5, fessif, read-out: Solubility in FeSSIF (pH = 5)): > 100 µM; solubility ([5]; PBS, pH 7.4, aqueous buffer, read-out: Solubility in PBS (pH = 7.4)): < 10 µM; solubility ([5]; simulated gastric fluid (SGF), simulated gastric fluid, SGF, pH 1.6, read-out: Solubility in SGF (pH = 1.6)): 12.5 µM; solubility ([5]; water, H2O, read-out: Solubility in H2O): < 10 µM; Cmax in plasma relative to the EC50 for L. infantum in vitro ([6]; 20 mg/kg oral gavage): 10 fold; AUC(0-inf) ([6]; BALB/c (Compound 19), NMRI (miltefosine), healthy mice, 20 mg/kg oral gavage, Table 10, read-out: AUC (0-∞)): 967 ± 471 µg·h/mL; AUC(0-inf) ([6]; BALB/c (Compound 19), NMRI (miltefosine), healthy mice, 20 mg/kg oral gavage, Table 10, read-out: AUC (0-∞) (μM h/mL)): 2090 µM·h; Cmax ([6]; BALB/c (Compound 19), NMRI (miltefosine), healthy mice, 20 mg/kg oral gavage, Table 10, read-out: Cmax): 33.4 µM; Cmax ([6]; BALB/c (Compound 19), NMRI (miltefosine), healthy mice, 20 mg/kg oral gavage, Table 10, read-out: Cmax (μg/mL)): 15.4 ± 9.3 µg/mL; half-life ([6]; BALB/c (Compound 19), NMRI (miltefosine), healthy mice, 20 mg/kg oral gavage, Table 10, read-out: t1/2 (converted)): 17.4 ± 4.2 h; Tmax ([6]; BALB/c (Compound 19), NMRI (miltefosine), healthy mice, 20 mg/kg oral gavage, Table 10): 24 h; Ke (h − 1) ([6]; healthy BALB/c mice, 20 mg/kg gavage, Table 13): 0.049 h − 1; Ke ([6]; healthy mice, 20 mg/kg oral gavage, Table 10): 0.049 h⁻¹; AUC(0-inf) ([6]; po, healthy BALB/c mice, 20 mg/kg gavage, Table 13, read-out: AUC (0-∞)): 967 ± 471 µg·h/mL; AUC(0-inf) ([6]; po, healthy BALB/c mice, 20 mg/kg gavage, Table 13, read-out: AUC (0-∞) (μM h/mL)): 2090 µM·h; Cmax ([6]; po, healthy BALB/c mice, 20 mg/kg gavage, Table 13, read-out: Cmax): 33.4 µM; Cmax ([6]; po, healthy BALB/c mice, 20 mg/kg gavage, Table 13, read-out: Cmax (μg/mL)): 15.4 ± 9.3 µg/mL; Tmax ([6]; po, healthy BALB/c mice, 20 mg/kg gavage, Table 13): 24 h; half-life ([6]; po, healthy BALB/c mice, 20 mg/kg gavage, Table 13, read-out: t½ (converted)): 17.4 ± 4.2 h; average weight loss at the end of the experiment ([7]; 50 mg/kg daily oral gavage): 7±8%; day from which weight loss was significant ([7]; 100 mg/kg daily oral gavage): 5 days; average weight loss at the end of the experiment ([7]; 100 mg/kg daily oral gavage): 11±4%; MTD at 7 days ([7]; BALB/c, mouse, in vivo, oral): 100 mg/kg; infection outcome (words) ([8]; 50 mg/kg/day PO, 7 consecutive days): eliminated the infection; also recorded: full clearance of infection; relapse after treatment ([8]; 3 weeks after treatment, also after cyclophosphamide immune suppression): no relapse was detected; gel formation [9]: homogeneous gel product
